In US20200022964A1, “COMPOSITIONS AND METHODS FOR TREATMENT OF INFLAMMATORY AUTOIMMUNE DISEASES” (New York University, priority 2018, published 2020):

Key:
DBA/1J mice = test: Collagen induced arthritis model in DBA/1J mice; details: for loss of cartilage (Safranin O staining of ankle) / serum levels of IL-1β and IL-6 / arthritis clinical scores and incidence / onset of disease: prevention; for arthritis clinical scores and incidence / onset of disease: oral daily from 18 days after immunization, FFD 10 mg/kg, TFD 50 mg/kg; for disease scores: therapeutic, treatment initiated at clinical score of ˜5 points, FFD 0.4, 2, 10 mg/kg, TFD 2, 10, 50 mg/kg oral, 24 days
TNF-α = TNF-α induced cytokine expression and release in RAW264.7 cells (incl. H1R1 siRNA and cPLA2 knockout); assay type: cell-based; details: FFD 10 μM; for effect of suppression of H1R1 on the inhibition of TNF-induced cytokine release: RAW264.7 cells with H1R1 siRNAs
Description: qRT-PCR. Total RNA was extracted by RNeasy plus mini kit (74106, QIAGEN) and cDNA was synthesized using SuperScript® Reverse Transcriptase (M314C, promega Corporation). SYBR® Green PCR Master Mix (4309155, Applied Biosystems) was used to perform quantitative real-time PCR (qRT-PCR) and the reaction was performed on a StepOnePlus™ real-time PCR Systems (Applied Biosystems). The mRNA expression level of target genes was calculated by ΔΔCT and fold changes of mRNA levels were normalized to GAPDH.
Knock down of H1R1 by siRNA. BMDMs were transfected with siH1R1, or scrambled control siRNA (scRNAi) using lipofectamine 2000 (11668-019, Invitrogen) according to manufacturer's specifications. After 24 hours, supernatants and lysate were collected to detect cytokine secretion and protein expression, respectively.
Knock out of cPAL2 by CRISPR-Cas9. Knockout cells were generated in accordance with a previously published protocol. gRNA was inserted into the lentiCRISPR v2 vector. Packaging the inserted vector into lentivirus was completed by co-transfecting the lentiCRISPR v2, VSVG and ΔR6.7 in 293T cells. After packaging, we transfected the virus into RAW264.7 cells over 8 hours. Puromycin (2 μg/ml) was used to select the stably transfected RAW264.7 cells

TNF-α/NF-κB pathway = test: TNF-tg:NF-κB-Luc double mutant mice, luciferase imaging by IVIS; assay type: in vivo; details: for in vivo inhibition of the TNF-α/NF-κB pathway: FFD 2 or 10 mg/kg, TFD 10 or 50 mg/kg orally for 7 days; for TNF-tg:NF-κB activated luciferase in vivo: third round screen, treatment for 7 days
From the text: In vitro and in vivo screen of FDA-approved drug library. NF-κB-bla THP-1 cell line in which NF-κB beta-lactamase reporter gene was stably integrated, RAW 264.7 macrophages in which NF-κB luciferase reporter gene was transiently transfected, and TNF-tg:NF-κB-Luc double mutant reporter mice were employed to screen the drug library.
Screening and confirming the drugs' anti-TNF activity in vivo. TNF-tg mice and NF-κB luc mice were purchased from Jackson Laboratory and housed in Skirball Animal Facility of New York University Langone Medical Center. All animal experiments have been approved by Institutional Animal Care and Use Committee (IACUC) of New York University School of Medicine. We generated the TNF-tg/NF-κB-Luc mice by mating TNF-tg mice with NF-κB-Luc mice. After genotypes were confirmed by genotyping and bioluminescence via IVIS, the TNF-tg/NF-κB-Luc mice were orally treated daily with one of the 8 drugs selected in screen two for 7 days. The luciferase activity was detected by IVIS 15 minutes after the injection of D-Luciferin (LUCK-1G, Gold biotechnology).

CD4+ T cells = test: Spleen CD4+ T cell differentiation in vitro and splenic T cell composition in vivo; assay type: cell-based, mice
Description: Spleen CD4^+T cell differentiation. Inducing spleen naive CD4^+T cell differentiation into T cell subsets was performed. Briefly, after preparing the splenic naïve CD4^+T cells from wild-type 8-12 week old C57BL/6 mice, the following cytokines were added to induce naive CD4^+T cell differentiation into T cell subsets: IL-2 (20 ng/mL), IL-12 (15 ng/mL), and anti-IL4 (5 μg/mL) for Thl; IL-2 (20 ng/mL), IL-4 (10 ng/mL), and anti-IFNγ (5 μg/mL) for Th2; IL-6 (20 ng/mL), TGFβ (3 ng/mL), anti-IFNγ (5 μg/mL), and anti-IL4 (5 μg/mL) for Th17; IL-2 (20 ng/mL), TGFβ (15 ng/mL), anti-IFNγ (5 μg/mL), and anti-IL4 (5 μg/mL) for Treg. […] Before collecting cells for fluorescence staining, 1 μL Golgi stop from Fixation/Permeabilization Solution Kit with BD GolgiPlug™ (555028,BD Biosciences) was added to each well and incubated in the plate for 4 hours. Cells were stained according to the kit specifications. For each T cell subtype, the combination of fluorescence dyes was as follows: FITC-CD4 (M1004502, Sungene) and Percp-cy5.5-IFNγ (45-7311-82, eBioscience) for Th1; FITC-CD4 and PE-IL4 (554389, BD pharmingen) for Th2; FITC-CD4 and PE-IL-17A (12-7177-81, eBioscience) for Th17; FITC-CD4, PE-CD25 (102008, Biolegend) and Alex-Fluo647-FoxP3 (51-5773-80, eBioscience) for Treg. Then the samples were analyzed at NYU core facilities using a FACS Calibur cell analyzer with CellQuest software. […] Frozen splenic tissue specimens from TNFα Tg mice treated with or without TFD or FFD were stained and analyzed dual immunofluorescence. All sections were permeabilized with 0.1% NP40 in PBS, and then blocked in 5% donkey serum for 30 min at RT, followed by incubated with anti-IFNg (Th1), anti-IL-4 (Th2), anti-IL17 (Th17) and anti-foxp3 (Treg) diluted in 5% donkey serum at 4° C. overnight. On the second day, after washed 3 times in PBS, the sections were incubated with Cy2-conjugated donkey anti-rat IgG for 30 min at RT. After wash, the sections were furthered stained with FITC conjugated anti-CD4 for I hour at RT. To determine the macrophage polarization, sections were double stained with anti-CD68 and iNOS (M1) or CD206 (M2). DAPI were used to stain the nuclei. The fluorescence intensity of cells was quantified by Image J software.

[1] = tested on: TNFRs expressed on cell surface; test: Flow cytometry of biotin-labelled TNF-α binding to RAW264.7 cell surface; assay type: cell-based; details: RAW264.7 cells; FFD 10 μM, TFD 1 μM overnight
Description: Flow cytometry. […] RAW 264.7 cells were seeded in a 12-well plate. […] Then the samples were analyzed at NYU core facilities using a FACS Calibur cell analyzer with CellQuest software.

Row | SMILES | loss of cartilage (Safranin O staining of ankle) (DBA/1J mice) | serum levels of IL-1β and IL-6 (DBA/1J mice) | arthritis clinical scores and incidence (DBA/1J mice) | onset of disease (DBA/1J mice) | disease scores (DBA/1J mice) | effect of suppression of H1R1 on the inhibition of TNF-induced cytokine release (TNF-α) | inhibition of TNF-α activity (IL-1β, IL-6 release) in cPLA2 knockout cells (TNF-α; cPLA2 KO RAW264.7 cells) | in vivo inhibition of the TNF-α/NF-κB pathway (TNF-α/NF-κB pathway) | TNF-tg:NF-κB activated luciferase in vivo (TNF-α/NF-κB pathway) | differentiation of IFNγ-positive Th1 subpopulation (CD4+ T cells) | differentiation of Th2, Th17 and regulatory T cells (CD4+ T cells) | binding of TNF-α to the cell surface [1]
1 | CC(C)(C(=O)O)c1ccc(C(O)CCCN2CCC(C(O)(c3ccccc3)c3ccccc3)CC2)cc1 (centres unmarked) [fexofenadine] | prevented the loss of cartilage | significantly reduced | significantly decrease | delay the onset | dose-dependently ameliorated | did not affect | entirely or almost entirely lost | dose-dependent inhibition | effectively inhibit | significantly suppressed | negligible effects | did not affect
2 | CC(C)(C)c1ccc(C(O)CCCN2CCC(C(O)(c3ccccc3)c3ccccc3)CC2)cc1 (centres unmarked) [terfenadine] | prevented the loss of cartilage | significantly reduced | significantly decrease | delay the onset | dose-dependently ameliorated | did not affect |  | dose-dependent inhibition | effectively inhibit | significantly suppressed | negligible effects | did not affect
